{"source": "a melting point compilation (Tetko et al.; mined from patent text by program, amines drawn as free bases though some values may be those of a salt)", "data": [{"units": {"melting point": "°C"}, "values": [{"smiles": "Nc1c2c(nc3ccc(Cl)cc13)CCCC2=O", "melting point": "> 260"}, {"smiles": "C#Cc1ccc2c(c1)C(c1ccccn1)=NCc1c(C(=O)N(C)C)ncn1-2", "melting point": "193 to 194"}, {"smiles": "Cc1cc(C=O)ccc1-c1ccccc1C(F)(F)F", "melting point": "127 to 130"}, {"smiles": "CCC1c2ccc(C#N)n2-c2ccc(F)cc2N1S(=O)(=O)c1ccc(OC)c(C)c1", "note": "(stereo unspecified)", "melting point": "196 to 199"}, {"smiles": "CN(C)S(=O)(=O)c1ccc2c(C=O)c[nH]c2c1", "melting point": "250 to 252"}, {"smiles": "COc1cccc(Nc2nc(OCC3CCCCC3)c3[nH]cnc3n2)c1", "melting point": "186 to 189"}, {"smiles": "COc1c(NOCc2ccccc2)ccnc1C", "melting point": 130}, {"smiles": "COc1ccc2c(c1)C(c1ccc(N)cc1)=NN(C(=O)C1CC1)C(C)C2", "note": "(stereo unspecified)", "melting point": "93 to 95"}, {"smiles": "O=C1c2ccccc2C(=O)N1C1CCN(Cc2ccccc2)CC1", "melting point": "154 to 157"}, {"smiles": "Cc1ccc2[nH]c(=O)n(C(C)(C)C(=O)OCC(=O)c3ccccc3)c(=O)c2c1", "melting point": "189 to 191"}, {"smiles": "Nc1ccc2c3c(cccc13)C(=O)N([C@@H]1CN3CCC1CC3)C2=O", "melting point": "305 to 308"}, {"smiles": "N#Cc1cc(NC(=O)c2sc3ccccc3c2Cl)ccc1N1CCC(N2CCOCC2)CC1", "melting point": "227 to 228"}, {"smiles": "COC(=O)Cc1cc(O)c(C(C)(C)C)cc1C", "melting point": "100 to 102"}, {"smiles": "c1ccc(-n2c(Cn3ccnc3)nc3cccnc32)cc1", "melting point": "146 to 148"}, {"smiles": "Nc1ccccc1NC(=O)c1ccc(COC(=O)NCc2cccnc2)cc1", "melting point": "139 to 141"}, {"smiles": "CC(Cl)CC(C)Oc1ccc(-c2ccc(C(=O)Oc3ccc(C#N)cc3)cc2)cc1", "note": "(stereo unspecified)", "melting point": 104}, {"smiles": "COC(=O)CCOc1ccc(CNC(=O)[C@@H]2Cc3ccccc3N2S(=O)(=O)c2ccc(C(C)(C)C)cc2)cc1", "melting point": "50 to 52"}, {"smiles": "Cc1c(CN2CCC(c3c(Cl)cccc3Cl)CC2)[nH]c2ccccc12", "melting point": "139 to 141"}, {"smiles": "COc1cc(N(C)C(C)C)ccc1CN1C(=O)C(C)(c2ccccc2Cl)c2cc(Cl)ccc21", "note": "(stereo unspecified)", "melting point": 156}, {"smiles": "Cc1ccc(S(=O)(=O)OCC2(CO)OC(n3ccc(=O)[nH]c3=O)C(O)C2O)cc1", "note": "(stereo unspecified)", "melting point": "119 to 120"}, {"smiles": "CCCC(C)(c1ccc(Oc2ccc([N+](=O)[O-])cc2)cc1)c1ccc(Oc2ccc([N+](=O)[O-])cc2)cc1", "melting point": "151 to 152"}, {"smiles": "O=C1CN2C(=O)C(c3ccccc3)c3cc(Cl)cc(c32)N1", "note": "(stereo unspecified)", "melting point": "156 to 159"}, {"smiles": "CCOc1ccc(C=C(CS)C(=O)NCCC(=O)O)cc1", "melting point": 148}, {"smiles": "Nc1ccc(C=Cc2nc3ccccc3nc2C=Cc2ccc(N)cc2)cc1", "melting point": "227 to 228"}, {"smiles": "CC(=O)C=Cc1ccccc1O", "melting point": "136 to 137"}, {"smiles": "CNC(=O)C(C)Oc1ccc(Oc2ccc(C(F)(F)F)cc2)cc1", "note": "(stereo unspecified)", "melting point": "129 to 133"}, {"smiles": "CN(C)Cc1nc(C=O)nn1-c1ccc(Cl)cc1C(=O)c1ccccc1", "melting point": "178 to 181"}, {"smiles": "N#CCC1CC(=O)N(c2ccc(F)cc2)C1=O", "note": "(stereo unspecified)", "melting point": 97}, {"smiles": "Nc1cc(Cl)nc(SC/C=C/C(=O)N2CCOCC2)n1", "melting point": "154 to 157"}, {"smiles": "O=C(Oc1ccc(Cl)c(OCC2CC2(Cl)Cl)c1)N1CCCC1", "note": "(stereo unspecified)", "melting point": "72 to 74"}, {"smiles": "O=C1NC(C(=O)N2CC(O)CC2C(=O)O)CSCCCCCCCC1CS", "note": "(stereo unspecified)", "melting point": "124 to 130"}, {"smiles": "CC1(C)COC1(Cn1cncn1)c1ccc(Cl)cc1", "note": "(stereo unspecified)", "melting point": "90 to 102"}, {"smiles": "CCCn1nc2c(N)nc3c(c2c1CC(C)(C)O)CCCC3", "melting point": "143 to 145"}, {"smiles": "CN1CCC(=C2c3ccsc3C(O)Cn3ccnc32)CC1", "note": "(stereo unspecified)", "melting point": 230}, {"smiles": "CCNC1CCN(c2nc(N3CCOCC3)c3ncnc(N(C)Cc4ccccc4)c3n2)CC1", "melting point": "92 to 94"}, {"smiles": "CC#CCOc1ccc(S(=O)(=O)NC(C(=O)O)c2ccc(OCCN3CCCC3)cc2)cc1", "note": "(stereo unspecified)", "melting point": "245 to 247"}, {"smiles": "COC(=O)[C@H](CCCCNC(=O)c1ccc(C(=O)c2ccccc2)cc1)n1c2ccccc2c2ccccc21", "melting point": 65}, {"smiles": "C=CCN1CCc2c([nH]c3ccccc23)C(C(=O)OC)C1", "note": "(stereo unspecified)", "melting point": "105 to 108"}, {"smiles": "CC(O)(c1ccc(Cl)cc1)C1CCNCC1", "note": "(stereo unspecified)", "melting point": "178 to 180"}, {"smiles": "O=C(Nc1cc2nc(-c3ccc(C(=O)C4CCCCCC4)cc3)[nH]c2cn1)C1CCCCCC1", "melting point": 194}, {"smiles": "CC(C)(C)OC(=O)N1CCC2(CC1)CC(=O)N(OCC#N)C2=O", "melting point": "138 to 139"}, {"smiles": "CCOC(=O)C(=O)Nc1c(C)cc(C(F)(F)F)cc1[N+](=O)[O-]", "melting point": "118 to 120"}, {"smiles": "COc1cc(Nc2c(C#N)cnc3cc(/C=C/n4nccn4)sc23)c(Cl)cc1Cl", "melting point": "315 to 316"}, {"smiles": "COC(=O)c1sc2ccccc2c1NC(C)=O", "melting point": "178 to 180"}, {"smiles": "O=C1Cc2ccccc2N1C1=NCCS1", "melting point": "97 to 99"}, {"smiles": "CC1C(=O)NCC1C(N)=O", "note": "(stereo unspecified)", "melting point": "169 to 171"}, {"smiles": "O=C(CCl)Nc1ccccc1O", "melting point": "133 to 134"}, {"smiles": "NC(=O)c1sc2nc(N3CCC(NCC(O)c4ccncc4)CC3)cc(C(F)(F)F)c2c1N", "note": "(stereo unspecified)", "melting point": "217 to 220"}, {"smiles": "CCOc1ncnc(C(F)(F)F)c1CS(=O)(=O)C1=NOC(C)(CCl)C1", "note": "(stereo unspecified)", "melting point": "76 to 78"}, {"smiles": "CCc1cccc2c3c([nH]c12)C(CC)(CC(=O)OC)OCC3", "note": "(stereo unspecified)", "melting point": "128 to 130"}, {"smiles": "COc1ccc(-c2cncc(C#N)c2-c2ccc3[nH]ccc3c2)cc1OC", "melting point": "215 to 217"}]}]}
